In patent US11807693B2 (priority 2014, dated 2023):
Starred links: 1 amine or outer side, 2 acyl side, 3 side chain; linkers in the order of their positions; H or OH if unused. Non-standard residues stand in square brackets, D forms with d. Residues, ends and D or L forms follow the SMILES beside them. *: point of attachment. dBip = N[C@H](Cc1ccc(-c2ccccc2)cc1)C(=O)O; Oic = O=C(O)[C@@H]1C[C@@H]2CCCC[C@@H]2N1; Phe(4-Cl) = N[C@@H](Cc1ccc(Cl)cc1)C(=O)O; Phe(4-I) = N[C@@H](Cc1ccc(I)cc1)C(=O)O; γGlu = O=C(O)[C@H](CCC(=O)[*:2])N[*:1]; 2Nal = N[C@@H](Cc1ccc2ccccc2c1)C(=O)O; NMehArg = CN[C@@H](CCCCNC(=N)N)C(=O)O; d(β3hF) = N[C@@H](CC(=O)O)Cc1ccccc1; NMeR = CN[C@@H](CCCNC(=N)N)C(=O)O; Palmitoyl = CCCCCCCCCCCCCCCC(=O)*; Tridecanoyl = CCCCCCCCCCCCC(=O)*; X1 = O=C(CN(C1CCNCC1)[*:1])[*:2]; hArg = N=C(N)NCCCC[C@H](N)C(=O)O; 3Pal = N[C@@H](Cc1cccnc1)C(=O)O; Cha = N[C@@H](CC1CCCCC1)C(=O)O; NMeL = CN[C@@H](CC(C)C)C(=O)O; αMeL = CC(C)C[C@](C)(N)C(=O)O; Tle = CC(C)(C)[C@H](N)C(=O)O; β3hP = O=C(O)C[C@@H]1CCCN1; Pip = O=C(O)[C@@H]1CCCCN1; Nle = CCCC[C@H](N)C(=O)O; Deg = CCC(N)(CC)C(=O)O; AEEA = NCCOCCOCC(=O)O; Aib = CC(C)(N)C(=O)O

Each molecule was assayed against T1, rat APJ receptor (Rattus norvegicus, UniProt Q9JHG3) (assay: [35S] GTPγS assay, rat APJ receptor). Details: Table 16, read-out: EC50 Rat APJ Receptor.
T1 construct: expressed in transfected cells
T1 sequence (Q9JHG3 1-377): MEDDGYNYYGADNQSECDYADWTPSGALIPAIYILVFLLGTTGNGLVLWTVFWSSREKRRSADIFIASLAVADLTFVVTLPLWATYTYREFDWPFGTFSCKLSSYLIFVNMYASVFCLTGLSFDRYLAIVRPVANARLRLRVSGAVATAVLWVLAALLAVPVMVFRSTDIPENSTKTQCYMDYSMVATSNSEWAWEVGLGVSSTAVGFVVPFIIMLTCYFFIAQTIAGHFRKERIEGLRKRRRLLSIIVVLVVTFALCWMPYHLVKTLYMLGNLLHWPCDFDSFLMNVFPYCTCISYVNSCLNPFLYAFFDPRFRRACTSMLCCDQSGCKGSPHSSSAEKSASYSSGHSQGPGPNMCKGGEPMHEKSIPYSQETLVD
Type: biochemical
Experimental: The membranes were incubated with modified peptides in the assay buffer. […] Bound [^35S] GTPγS was separated from free radiolabel by filtration. The filter bound radioactivity was determined by liquid scintillation counting.

Row | SMILES | EC50
1 | CCCCCCCCCCCCC(=O)N[C@@H](CCC(=O)NCCOCCOCC(=O)NCCOCCOCC(=O)N[C@@H](CCC(N)=O)C(=O)N[C@@H](CCCNC(=N)N)C(=O)N1CCC[C@H]1C(=O)N(C)[C@@H](CCCNC(=N)N)C(=O)N[C@@H](CC1CCCCC1)C(=O)N[C@@H](CO)C(=O)N[C@@H](Cc1c[nH]cn1)C(=O)N[C@@H](CCCCN)C(=O)NCC(=O)N1CCC[C@H]1CC(=O)N[C@@H](CCCC)C(=O)N1CCC[C@H]1C(=O)N[C@@H](Cc1ccc(Cl)cc1)C(=O)O)C(=O)O [compound 417] ({Tridecanoyl-γGlu-AEEA-AEEA}-QRP[NMeR][Cha]SHKG[β3hP][Nle]P[Phe(4-Cl)]-OH) | 8.1 nM
2 | CCCCCCCCCCCCC(=O)N[C@@H](CCC(=O)NCCOCCOCC(=O)NCCOCCOCC(=O)N[C@@H](CCC(N)=O)C(=O)N[C@@H](CCCNC(=N)N)C(=O)N1CCC[C@H]1C(=O)N[C@@H](CCCCNC(=N)N)C(=O)N[C@@](C)(CC(C)C)C(=O)N[C@@H](CO)C(=O)N[C@@H](Cc1c[nH]cn1)C(=O)N[C@@H](CCCCN)C(=O)NCC(=O)N1CCC[C@H]1C(=O)N[C@@H](CCCC)C(=O)N1CCC[C@H]1C(=O)N[C@@H](Cc1ccc2ccccc2c1)C(=O)O)C(=O)O [compound 404] ({Tridecanoyl-γGlu-AEEA-AEEA}-QRP[hArg][αMeL]SHKGP[Nle]P[2Nal]-OH) | 0.361 nM
3 | CCCCCCCCCCCCC(=O)N[C@@H](CCC(=O)NCCOCCOCC(=O)NCCOCCOCC(=O)N[C@@H](CCC(N)=O)C(=O)N[C@H](CCCNC(=N)N)C(=O)N1CCC[C@H]1C(=O)N(C)[C@@H](CCCCNC(=N)N)C(=O)N[C@@H](CC1CCCCC1)C(=O)N[C@@H](CO)C(=O)N[C@@H](Cc1c[nH]cn1)C(=O)N[C@@H](CCCCN)C(=O)NCC(=O)N1CCC[C@H]1C(=O)N[C@@H](CCCC)C(=O)N1CCC[C@H]1C(=O)N[C@@H](Cc1ccc(Cl)cc1)C(=O)O)C(=O)O [compound 435] ({Tridecanoyl-γGlu-AEEA-AEEA}-Q[dR]P[NMehArg][Cha]SHKGP[Nle]P[Phe(4-Cl)]-OH) | 1.15 nM
4 | CCCCCCCCCCCCC(=O)N[C@@H](CCC(=O)NCCOCCOCC(=O)NCCOCCOCC(=O)N[C@@H](CCC(N)=O)C(=O)N[C@@H](CCCNC(=N)N)C(=O)N1CCC[C@H]1C(=O)N(C)[C@@H](CCCNC(=N)N)C(=O)N[C@H](C(=O)N[C@@H](CO)C(=O)N[C@@H](Cc1c[nH]cn1)C(=O)N[C@@H](CCCCN)C(=O)NCC(=O)N1[C@H](C(=O)N[C@@H](CCCC)C(=O)N2CCC[C@H]2C(=O)N[C@@H](Cc2ccc(Cl)cc2)C(=O)O)C[C@@H]2CCCC[C@@H]21)C(C)(C)C)C(=O)O [compound 439] ({Tridecanoyl-γGlu-AEEA-AEEA}-QRP[NMeR][Tle]SHKG[Oic][Nle]P[Phe(4-Cl)]-OH) | 3.21 nM
5 | CCCCCCCCCCCCC(=O)N[C@@H](CCC(=O)NCCOCCOCC(=O)NCCOCCOCC(=O)N[C@@H](CCC(N)=O)C(=O)N[C@@H](CCCCNC(=N)N)C(=O)N1CCC[C@H]1C(=O)N(C)[C@@H](CCCNC(=N)N)C(=O)N[C@@H](CC1CCCCC1)C(=O)N[C@@H](CO)C(=O)N[C@@H](Cc1c[nH]cn1)C(=O)N[C@@H](CCCCN)C(=O)NCC(=O)N1[C@H](C(=O)N[C@@H](CCCC)C(=O)N2CCC[C@H]2C(=O)N[C@@H](Cc2ccc3ccccc3c2)C(=O)O)C[C@@H]2CCCC[C@@H]21)C(=O)O [compound 405] ({Tridecanoyl-γGlu-AEEA-AEEA}-Q[hArg]P[NMeR][Cha]SHKG[Oic][Nle]P[2Nal]-OH) | 13.8 nM
6 | CCCCCCCCCCCCC(=O)N[C@@H](CCC(=O)NCCOCCOCC(=O)NCCOCCOCC(=O)N[C@@H](CCC(N)=O)C(=O)N[C@@H](CCCNC(=N)N)C(=O)N1CCC[C@H]1C(=O)N(C)[C@@H](CCCNC(=N)N)C(=O)N[C@@H](CC(C)C)C(=O)N[C@@H](CO)C(=O)N[C@@H](Cc1c[nH]cn1)C(=O)N[C@@H](CCCCN)C(=O)NCC(=O)N1CCC[C@H]1C(=O)N[C@@H](CCCC)C(=O)N[C@@H](Cc1ccc2ccccc2c1)C(=O)O)C(=O)O [compound 403] ({Tridecanoyl-γGlu-AEEA-AEEA}-QRP[NMeR]LSHKGP[Nle][2Nal]-OH) | 8.1 nM

Same assay, conditions: rat APJ receptor, read-out: EC50 Rat APJ Receptor

Row | SMILES | EC50
7 | CCCCCCCCCCCCCCCC(=O)N[C@@H](CCC(=O)NCCOCCOCC(=O)NCCOCCOCC(=O)N[C@H](CCC(N)=O)C(=O)N[C@@H](CCCNC(=N)N)C(=O)N1CCC[C@H]1C(=O)N(C)[C@@H](CCCNC(=N)N)C(=O)N[C@@H](CC1CCCCC1)C(=O)N[C@@H](CO)C(=O)N[C@@H](Cc1c[nH]cn1)C(=O)N[C@@H](Cc1cccnc1)C(=O)NCC(=O)N1[C@H](C(=O)N[C@@H](CCCC)C(=O)N2CCC[C@H]2CC(=O)N[C@@H](CC(=O)O)Cc2ccccc2)C[C@@H]2CCCC[C@@H]21)C(=O)O [compound 620] ({Palmitoyl-γGlu-AEEA-AEEA}-[dQ]RP[NMeR][Cha]SH[3Pal]G[Oic][Nle][β3hP][d(β3hF)]-OH) | 14.9 nM
8 | CCCCCCCCCCCCC(=O)N[C@@H](CCC(=O)NCCOCCOCC(=O)NCCOCCOCC(=O)N[C@@H](CCCCNC(=N)N)C(=O)N[C@@H](CCCC)C(=O)N[C@@H](CCC(N)=O)C(=O)N[C@@H](CCCCNC(=N)N)C(=O)N1CCC[C@H]1C(=O)N[C@H](CCCNC(=N)N)C(=O)N(C)[C@@H](CC(C)C)C(=O)N[C@@H](CO)C(=O)N[C@@H](C)C(=O)N[C@@H](CCCCN)C(=O)NCC(=O)N1[C@H](C(=O)N[C@@H](Cc2ccc(I)cc2)C(=O)N2CCC[C@H]2C(=O)N[C@H](Cc2ccc(-c3ccccc3)cc2)C(=O)O)C[C@@H]2CCCC[C@@H]21)C(=O)O [compound 327] ({Tridecanoyl-γGlu-AEEA-AEEA}-[hArg][Nle]Q[hArg]P[dR][NMeL]SAKG[Oic][Phe(4-I)]P[dBip]-OH) | 14.8 nM
9 | CCCCCCCCCCCCC(=O)N[C@@H](CCC(=O)NCCOCCOCC(=O)NCCOCCOCC(=O)N[C@@H](CCCCNC(=N)N)C(=O)N[C@H](CCCNC(=N)N)C(=O)N[C@@H](CCC(N)=O)C(=O)N[C@@H](CCCCNC(=N)N)C(=O)N1CCC[C@H]1C(=O)N[C@H](CCCNC(=N)N)C(=O)N(C)[C@@H](CC(C)C)C(=O)N[C@@H](C)C(=O)N[C@@H](Cc1c[nH]cn1)C(=O)N[C@@H](CCCC)C(=O)NCC(=O)N1[C@H](C(=O)N[C@@H](Cc2ccc(I)cc2)C(=O)N2CCC[C@H]2C(=O)N[C@H](Cc2ccc(-c3ccccc3)cc2)C(=O)O)C[C@@H]2CCCC[C@@H]21)C(=O)O [compound 318] ({Tridecanoyl-γGlu-AEEA-AEEA}-[hArg][dR]Q[hArg]P[dR][NMeL]AH[Nle]G[Oic][Phe(4-I)]P[dBip]-OH) | 46 nM
10 | CSCC[C@H](NC(=O)[C@@H]1CCCN1C(=O)CNC(=O)[C@H](CCCCN)NC(=O)[C@H](Cc1c[nH]cn1)NC(=O)[C@H](CO)NC(=O)[C@H](CC(C)C)NC(=O)[C@H](CCCNC(=N)N)NC(=O)[C@@H]1CCCN1C(=O)[C@H](CCCNC(=N)N)NC(=O)[C@H](CCC(N)=O)NC(=O)[C@H](CCCNC(=N)N)NC(=O)[C@H](CCCNC(=N)N)NC(=O)[C@H](Cc1ccccc1)NC(=O)[C@@H](N)CCCCN)C(=O)N1CCC[C@H]1C(=O)O [compound 12] | 5.81 nM
11 | CCCC[C@H](NC(=O)[C@@H]1CCCN1C(=O)CNC(=O)[C@H](CCCCN)NC(=O)[C@H](Cc1c[nH]cn1)NC(=O)[C@H](CO)NC(=O)[C@H](CC(C)C)N(C)C(=O)[C@H](CCCNC(=N)N)N(C)C(=O)[C@@H]1CCCN1C(=O)[C@H](CCCNC(=N)N)NC(=O)[C@H](CCC(N)=O)NC(=O)[C@H](CCCNC(=N)N)NC(C)=O)C(=O)N1CCC[C@H]1C(=O)N[C@@H](Cc1ccc(Cl)cc1)C(=O)O [compound 67] (Ac-RQRP[NMeR][NMeL]SHKGP[Nle]P[Phe(4-Cl)]-OH) | 1.4 nM

Second part, the molecule after the results:

Row | EC50 | SMILES
12 | 0.994 nM | CCCCCCCCCCCCCCCC(=O)N[C@@H](CCC(=O)NCCOCCOCC(=O)NCCOCCOCC(=O)N[C@H](CCC(N)=O)C(=O)N(CC(=O)N1CCC[C@H]1C(=O)N(C)[C@@H](CCCNC(=N)N)C(=O)N[C@@H](CC1CCCCC1)C(=O)N[C@@H](CO)C(=O)N[C@@H](Cc1c[nH]cn1)C(=O)N[C@@H](CCCCN)C(=O)NCC(=O)N1CCCC[C@H]1C(=O)N[C@@H](CCCC)C(=O)NC(C)(C)C(=O)N[C@@H](Cc1ccc(Cl)cc1)C(=O)O)C1CCNCC1)C(=O)O [compound 646] ({Palmitoyl-γGlu-AEEA-AEEA}-[dQ][X1]P[NMeR][Cha]SHKG[Pip][Nle][Aib][Phe(4-Cl)]-OH)
13 | 12.5 nM | CCCCCCCCCCCCC(=O)N[C@@H](CCC(=O)NCCOCCOCC(=O)NCCOCCOCC(=O)NC(CC)(CC)C(=O)N[C@@H](CCCCNC(=N)N)C(=O)N1CCC[C@H]1C(=O)N[C@H](CCCNC(=N)N)C(=O)N[C@@H](CC1CCCCC1)C(=O)N[C@@H](CO)C(=O)N[C@@H](Cc1c[nH]cn1)C(=O)N[C@@H](CCCCN)C(=O)NCC(=O)N1[C@H](C(=O)N[C@@H](CCCC)C(=O)N2CCC[C@H]2C(=O)N[C@@H](Cc2ccc(Cl)cc2)C(=O)O)C[C@@H]2CCCC[C@@H]21)C(=O)O [compound 558] ({Tridecanoyl-γGlu-AEEA-AEEA}-[Deg][hArg]P[dR][Cha]SHKG[Oic][Nle]P[Phe(4-Cl)]-OH)

Same assay, conditions: read-out: EC50 Rat APJ Receptor

Row | SMILES | EC50
14 | CC(=O)N[C@@H](CCCCNC(=N)N)C(=O)N[C@@H](CCCCNC(=N)N)C(=O)N[C@@H](CCC(N)=O)C(=O)N[C@@H](CCCCNC(=N)N)C(=O)N1[C@H](C(=O)N[C@H](CCCNC(=N)N)C(=O)N(C)[C@@H](CC(C)C)C(=O)N[C@@H](CO)C(=O)N[C@@H](Cc2c[nH]cn2)C(=O)N[C@@H](CCCCN)C(=O)NCC(=O)N2[C@H](C(=O)N[C@@H](Cc3ccc(I)cc3)C(=O)N3CCC[C@H]3C(=O)N[C@H](Cc3ccc(-c4ccccc4)cc3)C(=O)O)C[C@@H]3CCCC[C@@H]32)C[C@@H]2CCCC[C@@H]21 [compound 21] (Ac-[hArg][hArg]Q[hArg][Oic][dR][NMeL]SHKG[Oic][Phe(4-I)]P[dBip]-OH) | 1.8 nM
